Laboratory results reported in patent US4372975A, “Substituted 2-benzoyl-4-chloroglycinanilide derivatives, a process for their production, and their use as medicaments” (Pierre Fabre SA, priority 1977, dated 1983).
Structures can show the parent of a compound that is named as a salt. Where two headings read alike, the source gives them in different places.

Tests used:
male Swiss mice = assay: Rota-Rod test; format: in vivo; conditions: falls off rod in less than 2 minutes
Description: This test is carried out on male Swiss mice. The mouse is placed on a 3 cm diameter wooden rod rotating at 5 revolutions per minute. The mice which succeed in remaining on the rod for at least 3 minutes in successive tests are selected and gathered into groups of 10 for the test of each dose. If the mouse falls off the rod in less than 2 minutes, the tested compound is considered to be effective. The results are expressed by the effective dose DE50 according to N. W. Dunham and T. S. Miva--J. amer. pharm. Ass., 1957, 46, 208.

[1] = test system: pentamethylene tetrazole-induced tonic spasms; assay: Anti-pentamethylene tetrazole activity; format: in vivo, male mice of the Swiss strain; conditions: Mus musculus, male Swiss mice
Description: This test is carried out on a group of 10 male mice of the Swiss strain. 15 minutes after the subcutaneous injection of 125 mg/kg of pentamethylene tetrazole, the mice have tonic spasms of which the outcome is fatal.
For the test, the compound is administered orally 60 minutes before the injection of pentamethylene tetrazole. The animals are observed for 2 hours after administration of the pentamethylene tetrazole. In some particular cases, the tests were confirmed by intraperitoneal administration. The results are expressed by the effective dose DE50 (Goodman et Col.--J. Pharmacol. 108, 1953).
As Japanese Pat. No. 148,340 has been cited in copending application Ser. No. 916,651, filed June 19, 1978, comparisons between compounds of this closest prior art and the compounds of the invention were undertaken in the form of a controlled study.
The major consideration surrounded the similarity in the compounds, particularly in the substitution at the R position. The study compared ten compounds of the invention, which differed from the Japanese prior art only in that the compounds of the invention are alkylated at the R position while the prior art compounds are all hydrogenated at that position.
The compounds were tested for anti-pentamethylene tetrazole activity, the test described on p.

[2] = Toxicity test (LD50, Miller and Tainter); conditions: mouse, in vivo, mice
Description: The compounds according to the invention were subjected to toxicity tests. It was tested in batches of 10 mice by oral, intraperitoneal and, in some cases, intravenous administration and was calculated in accordance with Miller and Tainter's method (Proc. Soc. exper. Biol. Med., 1944, 57, 261).

Solubility = format: physicochemical; conditions: for solubility / solubility in water (in words): in water; for solubility in ethanol: in ethanol at 95° GL
[3] = ip, intraperitoneal, 125 mg/kg s.c. pentamethylene tetrazole, read-out: anti-pentamethylene tetrazole activity DE50 I.P.
[4] = oral, 60 min before 125 mg/kg s.c. pentamethylene tetrazole, read-out: anti-pentamethylene tetrazole activity DE50 P.O.
[5] = ip, intraperitoneal, read-out: DL50 I.P.
[6] = intravenous, read-out: DL50 I.V.

Compound | Rota Rod DE50 V.O. (male Swiss mice) | ED50 [1, 3] | ED50 [1, 4] | LD50 [2, 5] | LD50 [2, 6] | LD50 ([2]; oral, read-out: DL50 oral) | solubility (Solubility) | solubility in dimethyl formamide (Solubility) | solubility in ethanol (Solubility) | solubility in water (in words) (Solubility)
CN(C(=O)CN1CCOCC1)c1ccc(Cl)cc1C(=O)c1ccccc1 [Example 18, N-Methyl-2-morpholino-(2'-benzoyl-4'-chloro)-acetanilide hydrochloride] | 60 | 1.4 mg/kg | 3.3 mg/kg | 750 mg/kg | 103 mg/kg | 1700 mg/kg | 100 mg/mL | – | – | –
C=C(C)CNCC(=O)N(C)c1ccc(Cl)cc1C(=O)c1ccccc1 [Example 19, N-Methyl-N'-(2'-methylallyl)-(2-benzoyl-4-chloro)-glycinanilide hydrochloride] | 21 | 1.1 mg/kg | 1.7 mg/kg | 500 mg/kg | 60 mg/kg | 1500 mg/kg | 50 mg/mL | – | – | –
CN(C(=O)CNC1CCCCC1)c1ccc(Cl)cc1C(=O)c1ccccc1 [Example 11, N-Methyl-N'-cyclohexyl-(2-benzoyl-4-chloro)-glycinanilide hydrochloride] | 27 | 1.25 mg/kg | 1.35 mg/kg | 305 mg/kg | 50 mg/kg | 1050 mg/kg | – | 1% | 3% | insoluble
CN(CCO)CC(=O)N(C)c1ccc(Cl)cc1C(=O)c1ccccc1 [Example 14, N,N'-dimethyl-N'-(2'-hydroxyethyl)-(2-benzoyl-4-chloro)-glycinanilide] | 66 | 1.5 mg/kg | 1.7 mg/kg | 350 mg/kg | 55 mg/kg | 1200 mg/kg | – | 20% | 20% | insoluble
C#CC1(NCC(=O)N(C)c2ccc(Cl)cc2C(=O)c2ccccc2)CCCCC1 [Example 9, N-Methyl-N'-(1'-ethinyl-cyclohexyl)-(2-benzoyl-4-chloro)-glycinanilide hydrochloride] | – | – | 3.9 mg/kg | 200 mg/kg | – | 560 mg/kg | – | 2% | 3% | insoluble
